The subject of experiment [1] is keratinocyte-melanocyte co-cultures. The experiment can be described thus: Induced pigmentation in keratinocyte-melanocyte co-cultures, DOPA staining and computerized image analysis. It counts as cell-based, Human. Here is the method:
The peptides Peptide 1 and Peptide 2 and various pigments were tested, alone or in combination, with keratinocyte-melanocyte cultures for their effect on cell pigmentation, using DOPA staining and computerized image analysis. The pigments that were tested were the pigmented natural extract Hedychium spicatum extract sold as Kapur Kachali from Amsar Private Limited (Indore, India), copper chloride from Sigma (St. Louis, Mo.) and the water-soluble melanin derivatives Melasyn-100™ from San-mar laboratories, Inc. (Elmsford, N.Y.) and MelanZe™ from Zylepsis (Ashford, Kent, United Kingdom). The pigments were tested at concentrations ranging from 0.0001%(W/V) to 1%(W/V) and peptides were tested at 50 μM.
The assay was conducted in the following manner. Human HaCaT keratinocytes (Boukamp P., et al., J Cell Biol 106, 3, 761-771 (1988)) were maintained in Dulbecco's Modified Eagle's Medium (DMEM) containing 10% fetal bovine serum (FBS), 4.5 mg/ml glucose, 2 mM L-glutamine, 50 U/ml penicillin and 50 μg/ml streptomycin (Life Technologies, Gaithersburg, Md.). Cells were maintained at <80% confluency in 5% CO2 (v/v) and were used in experimental procedures up to culture passage 15. Human primary melanocytes (Clonetics, San Diego, Calif. or Cascade Biologics, Portland, Oreg.) were maintained according to manufacturer's instructions. To establish keratinocyte-melanocyte co-cultures, 6×10^4 melanocytes were plated in each well of a 24 well plate and maintained according to manufacturer's instructions.
Melanocytes were rinsed three times with melanocyte growth media without PMA and keratinocytes (6×10^4) were plated to establish the co-cultures in this media. Co-cultures were treated for three days with test peptides and pigments, and assayed for cell viability and pigment level on the forth day. Cell viability was assayed using alamarBlue™ (Acumed International, West Lake, Ohio) following manufacturer's instructions. No change in viability was observed following three daily treatments with all tested material. All in vitro experiments were performed in triplicates, and were repeated at least three times.
Following three daily treatments, the co-cultures were briefly fixed (10% buffered formalin from Fisher Scientific, 15 minutes), washed three times with Phosphate-buffered saline (PBS, from Life Technologies) and stained with L-3,4-Dihydroxyphenylalanine (DOPA, from Sigma, St. Louis, Mo.) 0.1% in PBS, for 5 hours at 37° C., followed by two PBS washes and formalin (10%, overnight) fixation. DOPA is a substrate for tyrosinase, therefore an increase in staining represents increased tyrosinase activity and pigment production. DOPA-stained monolayers were used for image analysis. All images were obtained and analyzed with Image Pro Plus 3.0 software (Media Cybernetics, Silver Spring, Md.). Parameters measured were surface area of stained material within melanocyte and keratinocytes and the total surface area of the cells in the culture, and the relative pigmented area was calculated. A value of 100% was assigned to untreated controls, and values of treatment groups were normalized to their relevant controls. In all experiments there was no difference between PBS-treated cells and untreated controls. Data are presented with standard deviation (SigmaPlot® 5.0, SPSS Science, Chicago, Ill.).
Forskolin (Sigma, St. Louis, Mo.), a known inducer of pigmentation, served as a positive control and a reference point. Forskolin was administered at 1% (W/V).

For experiment [2], the system named is Dark skinned Yucatan microswine. In words: Induced pigmentation in vivo, F&M-stained histological skin sections scored for pigment deposition. The following applies: topical twice a day, five days/week, eight or nine weeks, average of all sites of responsive swine. Further details: key: −1: slight lightening; 0: No change; 1: Minimal increase in pigment deposition; 2: Increased pigment deposition; 3: Strong increase in pigment deposition, some increase in caps; 4: Strong increase in pigment deposition, strong increase in caps. Here is the method:
Compositions of the present invention were tested for their ability to induce in vivo pigmentation in skin cells in the following experiment. Dark skinned Yucatan microswine (Charles River, Portland, Me.) were housed in appropriately sized cages in an environmentally controlled room with a 12-hour light-12-hour dark photoperiod and supplied with food and water ad libitum. Animal care was based on the “Guide for the Care and Use of Laboratory Animals”, NIH Publication No. 85-23. Twenty μl of test peptides were applied topically, twice a day, five days/week, for eight or nine weeks, on the dorsum of the swine. Treatments of individual swine were always arranged in a head to tail order on one side, and in a tail to head order on the other side of the animal. Biopsies were taken using standard techniques.
Sections from the skin biopsies were stained with Hematoxylin and Eosin (H&E), or with Fontana-Mason (F&M), using standard procedures (Sheenan DC, Hrapckak BB, eds., Theory and Practice of Histo-technology. p. 223, 277, The C. V. Mosby Co., St. Louis (1980)). F&M staining identifies silver nitrate reducing molecules. In skin, this non-specific stain identifies primarily melanin. At least three sections per biopsy were processed. […]
F&M-stained histological skin sections were evaluated for the change in pigment deposition within the treated site. […]

The mark [3] stands for this setting: Table 1, 50 μM, three daily treatments, relative pigmented area after DOPA staining, control 0.184.
[4] abbreviates: Table 1, 50 μM, three daily treatments, versus control.

As for `[Cl][Cu][Cl]` [CuCl2, copper chloride, reference compound], the Mean area in experiment [1] (Table 2, CuCl2 0.001% (w/v), control 0.029) turned out to be 0.063. For the same compound, the “% increase” value in experiment [1] (Table 2, CuCl2 0.001% (w/v), normalized to control) turned out to be 220%.

In the case of `C=C[C@@]1(C)CC(=O)[C@]2(O)[C@@]3(C)[C@@H](O)CCC(C)(C)[C@@H]3[C@H](O)[C@H](OC(C)=O)[C@@]2(C)O1` [Forskolin, reference compound], the Mean area in experiment [1] (Table 2, Forskolin 1% (w/v), positive control, control 0.029) was found to be 0.067. Further, the “% increase” value in experiment [1] (Table 2, Forskolin 1% (w/v), positive control, normalized to control) was found to be 231.0%. Besides, in experiment [2] (positive control at 1% (W/V)), the “Score (pigment deposition)” value worked out at 1.

Take “H2-Leu-Ile-Gly-Arg-Leu-NH2 (H-LIGRL-NH2) [Peptide 2]”: the Mean area in experiment [1] (setting [3]) is reported as 0.240. In addition, in experiment [1] (setting [4]), the “% increase” value was 30.8%.

“H2-Leu-Ile-Gly-Arg-NH2 (H-LIGR-NH2) [Peptide 1]”: the Mean area in experiment [1] (setting [3]) was determined as 0.270; in experiment [1] (Table 2, Peptide 1 50 μM, three daily treatments, control 0.029), 0.080. Further, the “% increase” value in experiment [1] (setting [4]) was determined as 46.8%; in experiment [1] (Table 2, Peptide 1 50 μM, normalized to control), 279%. In experiment [2] (peptide at 250 μM or 500 μM), the “Score (pigment deposition)” value came to 2.

These data come from patent publication US20030138388A1, “Peptides and the use thereof in darkening the skin” (priority 2001, published 2003).
